Results published in PubChem BioAssay AID256 (DTP/NCI, 2004).
Where “and” joins values, the source holds several entries; their conditions need not be identical. Equal values may be shown once. Toxic doses and inconclusive results are not listed. The calls were made as follows: active = survival T/C of 150% or more; inactive = T/C below 125% in these data.

Test system: CD2F1 mice, L1210 leukemia ip, survival T/C
Assay: NCI In Vivo Anticancer Drug Screen. Data for tumor model L1210 Leukemia (intraperitoneal) in CD2F1 (CDF1) mice
Details: higher = longer survival
In short: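 Mice carrying a transplanted tumor received test compound or vehicle alone. The value is the measurement in the treated group divided by that in the vehicle-treated control group.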

[1] = endpoint: mean survival time, dose: 100.0 mg/kg/injection, schedule: Q01DX001 (ip), vehicle: saline with Tween-80
[2] = endpoint: mean survival time, dose: 200.0 mg/kg/injection, schedule: Q01DX001 (ip), vehicle: saline with Tween-80
[3] = endpoint: mean survival time, dose: 400.0 mg/kg/injection, schedule: Q01DX001 (ip), vehicle: saline with Tween-80
[4] = endpoint: mean survival time, dose: 25.0 mg/kg/injection, schedule: Q01DX009 (ip), vehicle: saline with Tween-80
[5] = endpoint: mean survival time, dose: 25.0 mg/kg/injection, schedule: Q04DX003 (ip), vehicle: saline with Tween-80
[6] = endpoint: mean survival time, dose: 50.0 mg/kg/injection, schedule: Q01DX009 (ip), vehicle: saline with Tween-80
[7] = endpoint: mean survival time, dose: 50.0 mg/kg/injection, schedule: Q04DX003 (ip), vehicle: saline with Tween-80
[8] = endpoint: mean survival time, dose: 100.0 mg/kg/injection, schedule: Q01DX001 (ip), vehicle: saline
[9] = endpoint: mean survival time, dose: 200.0 mg/kg/injection, schedule: Q01DX001 (ip), vehicle: saline
[10] = endpoint: mean survival time, dose: 400.0 mg/kg/injection, schedule: Q01DX001 (ip), vehicle: saline
[11] = endpoint: mean survival time, dose: 100.0 mg/kg/injection, schedule: Q01DX009 (ip), vehicle: saline with Tween-80
[12] = endpoint: mean survival time, dose: 100.0 mg/kg/injection, schedule: Q04DX003 (ip), vehicle: saline with Tween-80
[13] = endpoint: mean survival time, dose: 200.0 mg/kg/injection, schedule: Q01DX009 (ip), vehicle: saline with Tween-80
[14] = endpoint: mean survival time, dose: 200.0 mg/kg/injection, schedule: Q04DX003 (ip), vehicle: saline with Tween-80
[15] = endpoint: mean survival time, dose: 400.0 mg/kg/injection, schedule: Q01DX009 (ip), vehicle: saline with Tween-80
[16] = endpoint: mean survival time, dose: 400.0 mg/kg/injection, schedule: Q04DX003 (ip), vehicle: saline with Tween-80
[17] = endpoint: mean survival time, dose: 100.0 mg/kg/injection, schedule: Q04DX002 (ip), vehicle: saline with Tween-80
[18] = endpoint: mean survival time, dose: 200.0 mg/kg/injection, schedule: Q04DX002 (ip), vehicle: saline with Tween-80

Measured: T/C

C=C1C(=O)OC2CC(C)C3C4OC4C(O)C3(C)C(O)C12 (configuration not stated)
inactive: endpoint: median survival time, dose: 3.12 mg/kg/injection, schedule: Q01DX009 (ip), vehicle: saline 97 % of control | endpoint: median survival time, dose: 6.25 mg/kg/injection, schedule: Q01DX009 (ip), vehicle: saline 113 % of control | endpoint: median survival time, dose: 12.5 mg/kg/injection, schedule: Q01DX009 (ip), vehicle: saline 101 % of control | endpoint: median survival time, dose: 25.0 mg/kg/injection, schedule: Q01DX009 (ip), vehicle: saline 107 % of control | endpoint: median survival time, dose: 50.0 mg/kg/injection, schedule: Q01DX009 (ip), vehicle: saline 109 % of control | endpoint: median survival time, dose: 100.0 mg/kg/injection, schedule: Q01DX009 (ip), vehicle: saline 124 % of control

Cc1c(C)c(CSC#N)c(C)c(C)c1CSC#N
inactive: endpoint: mean survival time, dose: 75.0 mg/kg/injection, schedule: Q04DX003 (ip), vehicle: saline 98 % of control | endpoint: mean survival time, dose: 150.0 mg/kg/injection, schedule: Q04DX003 (ip), vehicle: saline 102 % of control | endpoint: mean survival time, dose: 300.0 mg/kg/injection, schedule: Q04DX003 (ip), vehicle: saline 95 % of control

O=C(COc1cccc(Cl)c1)NCc1ccc(NC(=O)c2ccc(S(=O)(=O)F)cc2)cc1
inactive: [1] 96 % of control | [2] 91 % of control | [3] 87 % of control

O=C1CN=C(c2ccccn2)c2cc(Br)ccc2N1
inactive: endpoint: mean survival time, dose: 100.0 mg/kg/injection, schedule: Q04DX003 (ip), vehicle: Klucel (hydroxypropylcellulose) (HPC) 95 % of control | endpoint: mean survival time, dose: 119.0 mg/kg/injection, schedule: Q01DX009 (ip), vehicle: Klucel (hydroxypropylcellulose) (HPC) 95 % of control | endpoint: mean survival time, dose: 187.0 mg/kg/injection, schedule: Q01DX009 (ip), vehicle: Klucel (hydroxypropylcellulose) (HPC) 100 % of control | endpoint: mean survival time, dose: 200.0 mg/kg/injection, schedule: Q04DX003 (ip), vehicle: Klucel (hydroxypropylcellulose) (HPC) 104 % of control | endpoint: mean survival time, dose: 266.0 mg/kg/injection, schedule: Q01DX009 (ip), vehicle: Klucel (hydroxypropylcellulose) (HPC) 95 % of control | endpoint: mean survival time, dose: 400.0 mg/kg/injection, schedule: Q01DX009 (ip), vehicle: Klucel (hydroxypropylcellulose) (HPC) 94 % of control | endpoint: mean survival time, dose: 400.0 mg/kg/injection, schedule: Q04DX003 (ip), vehicle: Klucel (hydroxypropylcellulose) (HPC) 104 % of control | endpoint: mean survival time, dose: 600.0 mg/kg/injection, schedule: Q01DX009 (ip), vehicle: Klucel (hydroxypropylcellulose) (HPC) 95 % of control

O=C1CC2CC=CCC2C(=O)O1 (configuration not stated)
inactive: endpoint: mean survival time, dose: 75.0 mg/kg/injection, schedule: Q01DX001 (ip), vehicle: saline 101 % of control | endpoint: mean survival time, dose: 150.0 mg/kg/injection, schedule: Q01DX001 (ip), vehicle: saline 98 % of control

CN(C)c1ccc(/C=N/NC(=O)NN)cc1
inactive: endpoint: mean survival time, dose: 12.5 mg/kg/injection, schedule: Q01DX009 (ip), vehicle: saline with Tween-80 98 % of control | endpoint: mean survival time, dose: 12.5 mg/kg/injection, schedule: Q04DX003 (ip), vehicle: saline with Tween-80 98 % of control | [4] 100 % of control | [5] 98 % of control | [6] 98 % of control | [7] 104 % of control

NC(=O)NC(S(=O)(=O)O)S(=O)(=O)O
inactive: [8] 96 % of control | [9] 101 % of control | [10] 101 % of control

c1ccc2c(NCCCCCCCCNc3c4ccccc4nc4ccccc34)c3ccccc3nc2c1
inactive: endpoint: mean survival time, dose: 1.25 mg/kg/injection, schedule: Q01DX009 (ip), vehicle: Klucel (hydroxypropylcellulose) (HPC) 120 % of control | endpoint: mean survival time, dose: 2.5 mg/kg/injection, schedule: Q01DX009 (ip), vehicle: Klucel (hydroxypropylcellulose) (HPC) 114 % of control and 100 % of control | endpoint: mean survival time, dose: 5.0 mg/kg/injection, schedule: Q01DX009 (ip), vehicle: Klucel (hydroxypropylcellulose) (HPC) 119 % of control and 120 % of control and 111 % of control | endpoint: mean survival time, dose: 10.0 mg/kg/injection, schedule: Q01DX009 (ip), vehicle: Klucel (hydroxypropylcellulose) (HPC) 109 % of control and 111 % of control | endpoint: mean survival time, dose: 20.0 mg/kg/injection, schedule: Q01DX009 (ip), vehicle: Klucel (hydroxypropylcellulose) (HPC) 117 % of control

CC(C)(C)C1CCC(S(=O)c2ccc([N+](=O)[O-])cc2[N+](=O)[O-])CC1 (configuration not stated)
inactive: [11] 90 % of control | [12] 94 % of control | [13] 91 % of control | [14] 98 % of control | [15] 86 % of control | [16] 88 % of control

COc1cc(C)cc(O)c1C=O
inactive: [12] 100 % of control | [14] 100 % of control | [16] 100 % of control

O=C(COc1ccc(F)cc1F)OC(=O)Cc1ccc(Br)cc1
inactive: [17] 101 % of control | [18] 105 % of control | endpoint: mean survival time, dose: 400.0 mg/kg/injection, schedule: Q04DX002 (ip), vehicle: saline with Tween-80 86 % of control

CCCCCCC(O)CCCCCC
inactive: endpoint: mean survival time, dose: 100.0 mg/kg/injection, schedule: Q01DX009 (ip), vehicle: other 96 % of control | endpoint: mean survival time, dose: 100.0 mg/kg/injection, schedule: Q04DX003 (ip), vehicle: other 100 % of control | endpoint: mean survival time, dose: 200.0 mg/kg/injection, schedule: Q01DX009 (ip), vehicle: other 98 % of control | endpoint: mean survival time, dose: 200.0 mg/kg/injection, schedule: Q04DX003 (ip), vehicle: other 97 % of control | endpoint: mean survival time, dose: 400.0 mg/kg/injection, schedule: Q01DX009 (ip), vehicle: other 98 % of control | endpoint: mean survival time, dose: 400.0 mg/kg/injection, schedule: Q04DX003 (ip), vehicle: other 95 % of control

C(=C(\C[P+](c1ccccc1)(c1ccccc1)c1ccccc1)c1ccccc1)/c1ccccc1
inactive: endpoint: mean survival time, dose: 1.25 mg/kg/injection, schedule: Q01DX009 (ip), vehicle: saline with Tween-80 104 % of control | endpoint: mean survival time, dose: 2.5 mg/kg/injection, schedule: Q01DX009 (ip), vehicle: saline with Tween-80 102 % of control | endpoint: mean survival time, dose: 5.0 mg/kg/injection, schedule: Q01DX009 (ip), vehicle: saline with Tween-80 97 % of control

CCCCN(C)CCNc1cc(C)nc(Nc2nc3ccc(Cl)cc3[nH]2)n1
inactive: endpoint: mean survival time, dose: 16.5 mg/kg/injection, schedule: Q01DX009 (ip), vehicle: saline with Tween-80 88 % of control | [4] 97 % of control | endpoint: mean survival time, dose: 37.5 mg/kg/injection, schedule: Q01DX009 (ip), vehicle: saline with Tween-80 95 % of control | [6] 90 % of control | [1] 90 % of control | [2] 94 % of control

O=C(/C=C\c1ccc(Cl)cc1)c1ccccc1
inactive: [1] 100 % of control | [2] 96 % of control | [3] 96 % of control

C1CNC(SCCOCCOCCSC2=NCCN2)=N1
inactive: endpoint: mean survival time, dose: 12.5 mg/kg/injection, schedule: Q01DX009 (ip), vehicle: saline 97 % of control | endpoint: mean survival time, dose: 25.0 mg/kg/injection, schedule: Q01DX009 (ip), vehicle: saline 97 % of control | endpoint: mean survival time, dose: 50.0 mg/kg/injection, schedule: Q01DX009 (ip), vehicle: saline 100 % of control

COc1ccc(OC)c(/C=C(/C#N)C(N)=O)c1
inactive: endpoint: mean survival time, dose: 50.0 mg/kg/injection, schedule: Q04DX002 (ip), vehicle: saline with Tween-80 104 % of control | [17] 93 % of control | [2] 91 % of control | [18] 93 % of control | [3] 90 % of control

O=C(CN1CCCCC1)NC(=O)NC1=C(N2CCCCC2)C(=O)c2ccccc2C1=O
inactive: endpoint: mean survival time, dose: 100.0 mg/kg/injection, schedule: Q01DX001 (ip), vehicle: other 97 % of control | endpoint: mean survival time, dose: 200.0 mg/kg/injection, schedule: Q01DX001 (ip), vehicle: other 101 % of control | endpoint: mean survival time, dose: 400.0 mg/kg/injection, schedule: Q01DX001 (ip), vehicle: other 95 % of control

CC(=O)c1cc(Br)cc(Br)c1O
inactive: [8] 96 % of control | [9] 100 % of control | [10] 96 % of control

CONC(=O)c1ccccc1N=NN(C)C
inactive: endpoint: mean survival time, dose: 18.75 mg/kg/injection, schedule: Q01DX009 (ip), vehicle: Klucel (hydroxypropylcellulose) (HPC) 117 % of control and 107 % of control | endpoint: mean survival time, dose: 37.5 mg/kg/injection, schedule: Q01DX009 (ip), vehicle: Klucel (hydroxypropylcellulose) (HPC) 117 % of control and 109 % of control | endpoint: mean survival time, dose: 75.0 mg/kg/injection, schedule: Q01DX009 (ip), vehicle: Klucel (hydroxypropylcellulose) (HPC) 101 % of control

Clc1ccc(OCC2CO2)cc1 (configuration not stated)
inactive: [5] 101 % of control | [7] 101 % of control | [12] 98 % of control

NC(=S)N1N=C(c2cccc([N+](=O)[O-])c2)CCC1=O
inactive: [12] 111 % of control | [14] 111 % of control | [16] 107 % of control

Cc1cc(C)c(N2C(=O)CC(Sc3ccccc3N)C2=O)c(C)c1 (configuration not stated)
inactive: [11] 92 % of control | [13] 96 % of control | [15] 94 % of control
